Measurements reported in US20240368096A1 (Enanta Pharmaceuticals, Inc., priority 2022, published 2024).
Where two headings read alike, the source gives them in different places.

Columns and labels:
HBV = HBV infection in HepG2-NTCP cells (HBeAg AlphaLISA in supernatants); format: cell-based; settings: Hepatitis B virus, 192 h
Summary of the method: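 HepG2-NTCP A3 cells were pre-incubated 2 h with 3-fold serially diluted compounds, then infected with HBV at 2000 GE/cell with 4% PEG (0.5% DMSO final). After washing on day 1, cells stayed in 2.5% DMSO medium; supernatant HBeAg measured by AlphaLISA on day 8, EC50 versus DMSO controls.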

NTCP = molecular target: T1, NTCP (Homo sapiens, UniProt Q14973); assay: HepG2-NTCP preS1 binding competition assay (FITC-labeled myristoylated preS1 peptide); settings: HepG2-NTCP cells; competition with FITC-labeled preS1 peptide
T1 construct: expressed in transfected cells; host or cells: HepG2-NTCP (clone A3, kept under puromycin)
T1 sequence (Q14973 1-349): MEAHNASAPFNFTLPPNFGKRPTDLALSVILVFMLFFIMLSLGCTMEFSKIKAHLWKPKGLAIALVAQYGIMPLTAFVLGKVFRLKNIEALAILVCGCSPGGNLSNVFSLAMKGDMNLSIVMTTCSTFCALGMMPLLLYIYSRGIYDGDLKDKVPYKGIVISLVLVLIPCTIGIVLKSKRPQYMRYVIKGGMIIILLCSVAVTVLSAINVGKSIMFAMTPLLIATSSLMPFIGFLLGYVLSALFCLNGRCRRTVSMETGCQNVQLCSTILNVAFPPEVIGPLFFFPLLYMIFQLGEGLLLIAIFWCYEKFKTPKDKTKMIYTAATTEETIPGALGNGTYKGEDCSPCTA
Experimental: HepG2-NTCP preS1 Binding Competition Assay
Myristoylated preS1 peptide (2-48 aa) conjugated to a C-terminal FITC tag was synthesized to evaluate preS1 binding to NTCP-expressing cells. HepG2-NTCP cells seeded in 384-wells were pre-treated with compounds for 2 hours prior to the addition of FITC-labeled preS1 peptide. After co-incubation for 30 minutes, unbound FITC-preS1 peptide was washed twice with PBS, and the fluorescence of preS1-FITC bound to cell surface was detected by Envision plate reader. EC50 ranges are as follows: A<0.1 μM; B 0.1-1 μM; C>1 μM.

[1] = HBV infection of HepG2-NTCP cells, HBeAg in supernatants at day 8 post infection, read-out: Cellular EC50

| SMILES | EC50 (HBV; [1]) | EC50 (NTCP) | EC50 (HBV; read-out: Cellular EC50 (μM)) |
| --- | --- | --- | --- |
| CN1[C@H](C2CCCCC2)CN(c2ccccc2)c2cc(F)c(-c3ccc(NC(=O)OCc4ccccc4)c(C(=O)O)c3)cc2S1(=O)=O [Example 235, (R)-2-(((benzyloxy)carbonyl)amino)-5-(3-cyclohexyl-7-fluoro-2-methyl-1,1-dioxido-5-phenyl-2,3,4,5-tetrahydrobenzo[f][1,2,5]thiadiazepin-8-yl)benzoic acid] | < 0.1 µM | < 100 nM |  |
| COC(C)(C)COC(=O)Nc1cc(-c2cc3c(cc2Cl)N(c2ccccc2)C[C@@H](C2CCCCC2)N(C)S3(=O)=O)sc1C(=O)O [Example 239, (R)-5-(7-chloro-3-cyclohexyl-2-methyl-1,1-dioxido-5-phenyl-2,3,4,5-tetrahydrobenzo[f][1,2,5]thiadiazepin-8-yl)-3-(((2-methoxy-2-methylpropoxy)carbonyl)amino)thiophene-2-carboxylic acid] | < 0.1 µM | < 100 nM |  |
| CCOC(=O)Nc1cc(-c2cc3c(cc2Cl)N(c2ccccc2)C[C@@H](C2CCCCC2)N(C)S3(=O)=O)sc1C(=O)O [Example 240] | < 0.1 µM | < 100 nM |  |
| CC(C)COC(=O)Nc1cc(-c2cc3c(cc2Cl)N(c2ccccc2)C[C@@H](C2CCCCC2)N(C)S3(=O)=O)sc1C(=O)O [Example 241] | < 0.1 µM | < 100 nM |  |
| CN1[C@H](C2CCCCC2)CN(c2ccccc2)c2cc(Cl)c(-c3cc(NC(=O)OCC(F)F)c(C(=O)O)s3)cc2S1(=O)=O [Example 242] | < 0.1 µM | < 100 nM |  |
| CCCCOC(=O)Nc1cc(-c2cc3c(cc2Cl)N(c2ccccc2)C[C@@H](C2CCCCC2)N(C)S3(=O)=O)sc1C(=O)O [Example 246] | < 0.1 µM | < 100 nM |  |
| CCCCCCS(=O)(=O)Nc1ccc(-c2cc3c(cc2Cl)N(c2ccccc2)C[C@@H](C2CCCCC2)N(C)S3(=O)=O)cc1C(=O)O [Example 273] | < 0.1 µM | < 100 nM |  |
| CCCS(=O)(=O)Nc1ccc(-c2cc3c(cc2Cl)N(c2ccccc2)C[C@@H](C2CCCCC2)N(C)S3(=O)=O)cc1C(=O)O [Example 274] | < 0.1 µM | < 100 nM |  |
| CCCS(=O)(=O)Nc1cc(-c2cc3c(cc2Cl)N(c2ccccc2)C[C@@H](C2CCCCC2)N(C)S3(=O)=O)sc1C(=O)O [Example 275, (R)-5-(7-chloro-3-cyclohexyl-2-methyl-1,1-dioxido-5-phenyl-2,3,4,5-tetrahydrobenzo[f][1,2,5]thiadiazepin-8-yl)-3-(propylsulfonamido)thiophene-2-carboxylic acid] | < 0.1 µM | < 100 nM |  |
| COc1ccccc1N1C[C@@H](C2CCCCC2)N(C)S(=O)(=O)c2cc(-c3ccc(F)c(C(=O)O)c3)c(Cl)cc21 [Example 304, (R)-5-(7-chloro-3-cyclohexyl-5-(2-methoxyphenyl)-2-methyl-1,1-dioxido-2,3,4,5-tetrahydrobenzo[f][1,2,5]thiadiazepin-8-yl)-2-fluorobenzoic acid] |  | > 1000 nM | > 1 µM |
| CCOc1ccccc1N1C[C@@H](C2CCCCC2)N(C)S(=O)(=O)c2cc(-c3ccc(F)c(C(=O)O)c3)c(Cl)cc21 [Example 307] |  | > 1000 nM | > 1 µM |
| CN1[C@H](C2CCCCC2)CN(c2csc(Cl)c2)c2cc(Cl)c(-c3ccc(F)c(C(=O)O)c3)cc2S1(=O)=O [Example 316, (R)-5-(7-chloro-5-(5-chlorothiophen-3-yl)-3-cyclohexyl-2-methyl-1,1-dioxido-2,3,4,5-tetrahydrobenzo[f][1,2,5]thiadiazepin-8-yl)-2-fluorobenzoic acid] | < 0.1 µM | < 100 nM |  |
| CN1[C@H](C2CCCCC2)CN(c2nccs2)c2cc(Cl)c(-c3ccc(F)c(C(=O)O)c3)cc2S1(=O)=O [Example 317] | 0.1 to 1 µM | 100 to 1000 nM |  |
| CN1[C@H](C2CCCCC2)CN(c2ncco2)c2cc(Cl)c(-c3ccc(F)c(C(=O)O)c3)cc2S1(=O)=O [Example 318] |  | > 1000 nM | > 1 µM |
| CN1[C@H](C2CCCCC2)CN(CC2COC2)c2cc(Cl)c(-c3ccc(F)c(C(=O)O)c3)cc2S1(=O)=O [Example 320] |  | > 1000 nM | > 1 µM |
| CN1[C@H](C2CCCCC2)CN(C2CCOCC2)c2cc(Cl)c(-c3ccc(F)c(C(=O)O)c3)cc2S1(=O)=O [Example 321] | 0.1 to 1 µM | 100 to 1000 nM |  |
| CCCCCN1C[C@@H](C2CCCCC2)N(C)S(=O)(=O)c2cc(-c3ccc(F)c(C(=O)O)c3)c(Cl)cc21 [Example 323] | < 0.1 µM | < 100 nM |  |
| CC(C)CN1C[C@@H](C2CCCCC2)N(C)S(=O)(=O)c2cc(-c3ccc(F)c(C(=O)O)c3)c(Cl)cc21 [Example 325] | < 0.1 µM | < 100 nM |  |
| COc1cc2c(cc1-c1ccc(F)c(C(=O)O)c1)S(=O)(=O)N(C)[C@H](C1CCCCC1)CN2c1ccccc1 [Example 348] | < 0.1 µM | < 100 nM |  |
| COCCOc1cc2c(cc1-c1ccc(F)c(C(=O)O)c1)S(=O)(=O)N(C)[C@H](C1CCCCC1)CN2c1ccccc1 [Example 388] | < 0.1 µM | < 100 nM |  |
| CN1[C@H](C2CCCCC2)CN(c2ccccc2)c2cc(OCc3c[nH]cn3)c(-c3ccc(F)c(C(=O)O)c3)cc2S1(=O)=O [Example 391] |  | > 1000 nM | > 1 µM |
| COCCOc1cc2c(cc1-c1cc(F)c(C(=O)O)s1)S(=O)(=O)N(C)[C@H](C1CCCCC1)CN2c1ccccc1 [Example 486] | < 0.1 µM | < 100 nM |  |
| Cc1cc(-c2cc3c(cc2OCC(F)(F)F)N(c2ccccc2)C[C@@H](C2CCCCC2)N(C)S3(=O)=O)sc1C(=O)O [Example 512, (R)-5-(3-cyclohexyl-2-methyl-1,1-dioxido-5-phenyl-7-(2,2,2-trifluoroethoxy)-2,3,4,5-tetrahydrobenzo[f][1,2,5]thiadiazepin-8-yl)-3-methylthiophene-2-carboxylic acid] | < 0.1 µM | < 100 nM |  |
| CCCCC1CN(c2ccccc2)c2cc(CN3CCCC3)c(-c3ccc(F)c(C(=O)O)c3)cc2S(=O)(=O)N1C (stereo not drawn) [Example 563, 5-(3-butyl-2-methyl-1,1-dioxido-5-phenyl-7-(pyrrolidin-1-ylmethyl)-2,3,4,5-tetrahydrobenzo[f][1,2,5]thiadiazepin-8-yl)-2-fluorobenzoic acid] | 0.1 to 1 µM | < 100 nM |  |
| CN1[C@H](C2CCCCC2)CN(c2ccccc2)c2cc(C34CC(C(F)(F)F)(C3)C4)c(-c3ccc(F)c(C(=O)O)c3)cc2S1(=O)=O [Example 595] | < 0.1 µM | < 100 nM |  |
| CN1[C@H](C2CCCCC2)CN(c2ccccc2)c2cc(Cl)c([C@H]3C[C@H](C(=O)O)C3)cc2S1(=O)=O [Example 608, (1R,3r)-3-((R)-7-chloro-3-cyclohexyl-2-methyl-1,1-dioxido-5-phenyl-2,3,4,5-tetrahydrobenzo[f][1,2,5]thiadiazepin-8-yl)cyclobutane-1-carboxylic acid] | 0.1 to 1 µM | 100 to 1000 nM |  |
| CN1[C@H](C2CCCCC2)CN(c2ccccc2)c2cc(Cl)c(N3C[C@H](C(=O)O)[C@@H](c4ccccc4)C3)cc2S1(=O)=O [Example 612] | < 0.1 µM | 100 to 1000 nM |  |
| CN1[C@H](C2CCCCC2)CN(c2ccccc2)c2cc(Cl)c(N3C[C@@H](C(=O)O)[C@H](c4ccccc4)C3)cc2S1(=O)=O [Example 613] | < 0.1 µM | 100 to 1000 nM |  |
| CN1[C@H](C2CCCCC2)CN(c2ccccc2)c2cc(Cl)c(N3C[C@H](C(=O)O)[C@@H](C(F)(F)F)C3)cc2S1(=O)=O [Example 614] | < 0.1 µM | < 100 nM |  |
| CN1[C@H](C2CCCCC2)CN(c2ccccc2)c2cc(Cl)c(N3C[C@H]4C[C@@]4(C(=O)O)C3)cc2S1(=O)=O [Example 615] | 0.1 to 1 µM | < 100 nM |  |
